Where “and” joins values, the source holds several entries; their conditions need not be identical. Equal entries are not always repeated.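 Protocol summary: plate cells (96-well), add compound at 5 concentrations, incubate 48 h, interpolate endpoints linearly. The concentration for 50% growth inhibition is given as GI50. TGI denotes the concentration required for complete inhibition of growth.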
What was measured:
Assay in all cases: NCI tumour cell line growth inhibition, 48 h
HT29 colon = test system: HT29 colon
HOP-62 NSCLC = test system: HOP-62 NSCLC
CCRF-CEM leukemia = test system: CCRF-CEM leukemia
SK-MEL-2 melanoma = test system: SK-MEL-2 melanoma
OVCAR-8 ovarian = test system: OVCAR-8 ovarian
SN12C renal = test system: SN12C renal
A549 NSCLC = test system: A549 NSCLC
LOX IMVI melanoma = test system: LOX IMVI melanoma
EKVX NSCLC = test system: EKVX NSCLC
HCT-15 colon = test system: HCT-15 colon

| Compound | TGI (HT29 colon) | TGI (HOP-62 NSCLC) [µM] | TGI (CCRF-CEM leukemia) | TGI (SK-MEL-2 melanoma) [µM] | TGI (OVCAR-8 ovarian) | TGI (SN12C renal) | TGI (A549 NSCLC) [µM] | TGI (LOX IMVI melanoma) | TGI (EKVX NSCLC) | TGI (HCT-15 colon) | GI50 (OVCAR-8 ovarian) | GI50 (SN12C renal) [µM] | GI50 (A549 NSCLC) [µM] | GI50 (LOX IMVI melanoma) [µM] | GI50 (HT29 colon) [µM] | GI50 (EKVX NSCLC) [µM] | GI50 (CCRF-CEM leukemia) [µM] | GI50 (SK-MEL-2 melanoma) [µM] | GI50 (HCT-15 colon) [µM] | GI50 (HOP-62 NSCLC) [µM] |
| --- | --- | --- | --- | --- | --- | --- | --- | --- | --- | --- | --- | --- | --- | --- | --- | --- | --- | --- | --- | --- |
| COC1CCC(OS(C)(=O)=O)CO1 (stereo not given) | > 100 µM | > 100 | 91.7 µM | > 100 |  |  |  |  |  |  |  |  |  |  |  |  |  |  |  |  |
| CCCCC1Cc2cc(OC)ccc2-c2nc3cc(OC)ccc3n21 (stereo not given) (tested in a mixture with another compound) | 22.5 µM | 29.2 | 34.1 µM |  | 31.6 µM | 27.9 µM | 27.9 | 30 µM | 25.2 µM | 11.3 µM |  |  |  |  |  |  |  |  |  |  |
| N=C(N)C(N=Nc1ccccc1)C(=N)N (stereo not given) | > 100 µM | > 100 | 40.6 µM | 91.9 | > 100 µM | > 100 µM | > 100 | > 100 µM | > 100 µM | > 100 µM |  |  |  |  |  |  |  |  |  |  |
| O=C1OC(c2ccccc2)=N/C1=C/c1cccs1 | > 100 µM | > 100 | 75.1 µM | > 100 | > 100 µM |  | > 100 |  | > 100 µM | > 100 µM |  |  |  |  |  |  |  |  |  |  |
| O=c1c2c([nH]c3nccn13)CCCC2 | > 10 µM | > 10 | > 10 µM | > 10 | > 10 µM | > 10 µM | > 10 | > 10 µM | > 10 µM | > 10 µM |  |  |  |  |  |  |  |  |  |  |
| C[N+]1(C)C2CCC1CC(OC(=O)C(CO)c1ccccc1)C2 (stereo not given) | > 100 µM | > 100 | > 100 µM | > 100 | > 100 µM | > 100 µM | > 100 | > 100 µM | > 100 µM | > 100 µM |  |  |  |  |  |  |  |  |  |  |
| CCN(CC)/C(=C\Cl)Nc1ccccn1 | > 100 µM | > 100 | > 100 µM | > 100 | > 100 µM | > 100 µM | > 100 | > 100 µM | > 100 µM | > 100 µM |  |  |  |  |  |  |  |  |  |  |
| O=C1CCC(NC(=O)Cc2ccc(O)cc2)C(=O)N1 (stereo not given) | > 2500 µM |  |  |  | > 2500 µM | > 2500 µM | > 2500 | > 2500 µM | > 2500 µM | > 2500 µM |  |  |  |  |  |  |  |  |  |  |
| CN1CCN(CCCOc2ccc3ncnc(Nc4ccc(Oc5cccc(C(F)(F)F)c5)c(Cl)c4)c3c2)CC1 | 3.63 µM |  | 7.46 µM | 3.72 | 10.7 µM | 2.57 µM | 2.74 | 2.81 µM | 3.4 µM | 2.88 µM | 2.78 µM | 1.26 | 1.27 | 1.3 | 1.13 | 1.16 | 2.32 | 1.86 | 1.33 |  |
| O=C1CC(N2C(=O)/C(=C/C(Cl)=C\c3ccc([N+](=O)[O-])cc3)SC2=S)C(=O)N1c1ccc(Cl)cc1 (stereo not given) | 4.6 µM | 5.5 | 12.4 µM | 32.1 | > 100 µM | 11.1 µM |  |  | > 100 µM | 8.2 µM | 0.832 µM | 1.69 |  |  | 0.632 | 3.11 | 0.486 | 3.12 | 0.599 | 1.73 |
| COc1nc(C#CCCCC#N)nc(OC)n1 | > 100 µM | 48.7 |  | 32.2 | 61.4 µM | 36.5 µM | 31.9 | 14.2 µM | 39.2 µM | 18.3 µM |  |  |  |  |  |  |  |  |  |  |
| Cc1c(N)nc([C@H](CC(N)=O)NC[C@H](N)C(N)=O)nc1C(=O)N[C@H](C(=O)N[C@H](C)[C@@H](O)[C@H](C)C(=O)N[C@H](C(=O)NCCc1nc(-c2nc(C(=O)NCCC[S+](C)C)cs2)cs1)[C@@H](C)O)C(OC1OC(CO)C(O)C(O)C1OC1OC(CO)C(O)C(OC(N)=O)C1O)c1cnc[nH]1 (stereo not given in full) | 25 µM and 29 µM and > 100 µM |  | 25 µM [middle of 4 runs] |  | 22.8 µM and 11.2 µM and 15.2 µM | 13.2 µM [middle of 4 runs] |  | 5.32 µM and 1.89 µM and 1.51 µM | 22 µM and 25 µM | 29 µM [middle of 4 runs] | 1.49 µM and 1.59 µM |  |  | 0.0661 |  | 25 |  |  |  |  |
| O=C(NN1C(=O)/C(=C/c2ccc(Cl)cc2)N=C1c1ccccc1)c1c(Cl)c(Cl)c(Cl)c(Cl)c1-c1nc2ccccc2[nH]1 | > 100 µM | > 100 | > 100 µM | 61.7 | > 100 µM | 86.4 µM | > 100 | 62.8 µM | > 100 µM | 28.3 µM |  |  |  |  |  |  |  |  |  |  |
| CN(C)CCNc1c([N+](=O)[O-])cc2c3c(cccc13)C(=O)N(CCN(C)C)C2=O | 5.03 µM | 8.49 | > 100 µM | 3.39 | 3.27 µM | 9.28 µM |  | 4.01 µM | 4.37 µM | 5.54 µM |  |  |  |  |  |  |  |  |  |  |
